Laboratory results taken from US8394971B2, “Indole derivatives as selective androgen receptor modulators (SARMS)” (Janssen Pharmaceutica N.V., priority 2004, dated 2013).

Columns and labels:
[1] = target: T1, androgen receptor (rat ventral prostate cytosol) (Rattus norvegicus, UniProt P15207); test: Androgen Receptor Binding Using Rat Ventral Prostate Cytosol
T1 construct: from tissue; host or cells: ventral prostate of castrated male Sprague Dawley or Wistar rats, cytosol
T1 sequence (P15207 1-902): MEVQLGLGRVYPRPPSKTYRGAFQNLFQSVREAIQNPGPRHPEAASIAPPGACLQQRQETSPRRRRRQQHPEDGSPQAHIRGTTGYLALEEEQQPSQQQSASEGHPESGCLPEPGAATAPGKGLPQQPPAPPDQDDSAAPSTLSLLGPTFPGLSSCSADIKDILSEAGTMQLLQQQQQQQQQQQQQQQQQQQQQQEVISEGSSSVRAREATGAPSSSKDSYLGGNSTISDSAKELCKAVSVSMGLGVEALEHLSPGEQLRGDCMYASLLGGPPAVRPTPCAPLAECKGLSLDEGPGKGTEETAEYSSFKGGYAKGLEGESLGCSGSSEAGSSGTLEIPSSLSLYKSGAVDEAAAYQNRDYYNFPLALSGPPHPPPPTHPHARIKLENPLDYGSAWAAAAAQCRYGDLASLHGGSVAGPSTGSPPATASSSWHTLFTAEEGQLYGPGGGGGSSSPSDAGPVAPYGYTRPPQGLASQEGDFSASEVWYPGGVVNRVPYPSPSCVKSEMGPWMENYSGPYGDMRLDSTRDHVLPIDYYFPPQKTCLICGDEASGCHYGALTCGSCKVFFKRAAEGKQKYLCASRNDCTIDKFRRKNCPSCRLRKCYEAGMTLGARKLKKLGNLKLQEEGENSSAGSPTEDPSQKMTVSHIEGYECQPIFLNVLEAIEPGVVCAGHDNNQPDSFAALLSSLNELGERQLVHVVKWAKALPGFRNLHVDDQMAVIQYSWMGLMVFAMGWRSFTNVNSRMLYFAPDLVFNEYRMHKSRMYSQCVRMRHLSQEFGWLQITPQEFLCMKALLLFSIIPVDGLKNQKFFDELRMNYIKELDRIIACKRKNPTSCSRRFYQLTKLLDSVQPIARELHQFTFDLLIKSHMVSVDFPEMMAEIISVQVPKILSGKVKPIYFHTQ
Procedure: The assay was run on a 96 well plate with each well filled with a total reaction volume 150 μL, of a solution containing 5 pmol androgen receptor LBD (Panvera) or 30 μL of freshly prepared rat cytosol, 0.5 nM [^3H] […] (TED buffer contains 10 mM Tris.HCl pH 7.4, 1 mM sodium molybdate, 1.5 mM EDTA, 1 mM DTT and 10% (v/v) glycerol.)
On day one, the solution containing receptor, tracer and TED buffer was distributed into a 96 well plate. Diluted test compound or control vehicle was then added to individual wells and the plate incubated at 4° C. overnight.
On day two, to each well was then added 20 μL human γ-globulin (ICN 823102), prepared at 25 mg/ml in TE pH 8.0, and 55 μL 40% polyethylene glycol 8000 (JT Baker U222-08), prepared in TE pH 8.0. The plate was incubated at 4° C. for 60 minutes. During incubation, the harvester was rinsed with 10% PEG 8000, prepared in TE pH 8.0, and a GF/C Unifilter-96 was pre-wet with 10% PEG. The binding reaction was filtered, the retentate was washed three times with 10% PEG and dried under vacuum for a couple of minutes, then dried at 50° C. for 5 min and the plate was bottom sealed. Next, 25 μL of Microscint-20 (Packard) was added to the filter wells and the plate was top sealed. The plate wells were then counted on a TopCount (Packard).
Rat Prostate Cytosol Preparation:
Male Sprague Dawley or Wistar rats (Charles River, 200-300 g) were used for each preparation. The day before preparing the cytosol, the rats were castrated using standard surgical procedures.
The rats were euthanized by carbon dioxide asphyxiation. The rat prostates were quickly removed and placed on ice in pre-chilled, pre-weighed 50 mL plastic tubes. No more than five prostates were placed into one tube. The tubes were then weighed and the prostate tissue wet weights calculated.
To the chilled prostate tissue was then added […] of chilled homogenization buffer. The homogenization buffer was freshly prepared by mixing 10 mM Tris.HCl, pH 7.4, 1 mM sodium molybdate, 1.5 mM EDTA, 1 mM dithiothreitol, 10% (v/v) glycerol and 1% protease inhibitor cocktail (Sigma P 8340).
The prostate tissue was homogenized in a cold room using a pre-chilled Polytron PT3000 homogenizer (Brinkmann). Homogenization was performed at a speed setting of 20, three times for 10 sec bursts. The tubes containing the prostate tissue was kept on ice while homogenizing. The homogenate was allowed to rest on ice for 20 sec between bursts.
The homogenate was then placed into pre-chilled 3 mL polycarbonate ultracentrifuge tubes and centrifuged in the TLA-100 rotor of a TL-100 ultracentrifuge for 12 min at 100,000 rpm at 4° C. The resulting supernatant was stored in 1 mL aliquots at −80° C. until needed.
Binding to the androgen receptor was determined according to the protocol described in Example 86 using the above prepared rat cytosol.
% Inhibition was determined by testing dilutions of the test compound (usually duplicates of 10 μM) in the binding assay. Counts per well were measured and percents of inhibition determined. […] Counts per well were measured and IC50s determined by linear regression.

[2] = system: testosterone-enhanced ventral prostate and seminal vesicle weights in castrated male Sprague Dawley rats; test: Ventral Prostate and Seminal Vesicle Weight In Vivo Assay; set-up: species or system rat; settings: immature castrated rats; once daily for five days, usually orally at 40 mg/kg, with testosterone propionate 2 mg/kg s.c.
Method in brief: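 Immature (~50 g) castrated Sprague Dawley rats dosed once daily for five days with compound (usually oral, 40 mg/kg, cyclodextrin or methylcellulose vehicle) plus testosterone propionate 2 mg/kg s.c. Wet ventral prostate and seminal vesicle weights taken on day six; activity judged by prostate weight or body-weight-adjusted % inhibition.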

[3] = rat cytosol, concentration 3000 nM

## CC(C)CSCC(C)(O)c1cc2cc([N+](=O)[O-])c(C(F)(F)F)cc2[nH]1 (racemic) [compound 170]
[1]; [3]
  % Inhibition: 80%
[2]
  active / inactive (inhibition of testosterone-enhanced prostate weight): active

## CSCCC(C)(O)c1cc2cc([N+](=O)[O-])c(C(F)(F)F)cc2[nH]1 (racemic) [compound 47]
[1]; 3 µM
  % Inhibition: 81%
[2]
  active / inactive (inhibition of testosterone-enhanced prostate weight): inactive

## COc1ccc(S(=O)(=O)CC(C)(O)c2cc3cc(Cl)c(C(F)(F)F)cc3[nH]2)cc1 (racemic) [compound 129]
[1]; [3]
  % Inhibition: 39.5%
[2]
  active / inactive (inhibition of testosterone-enhanced prostate weight): inactive

## COc1ccc(SCC(C)(O)c2cc3cc(Cl)c(C(F)(F)F)cc3n2S(C)(=O)=O)cc1 (racemic) [compound 130]
[1]; [3]
  % Inhibition: 32.55%

## CC(O)(C[S+]([O-])Cc1ccccc1)c1cc2cc([N+](=O)[O-])c(C(F)(F)F)cc2[nH]1 (mixture of isomers) [compound 161]
[1]; [3]
  % Inhibition: 39%
[2]
  active / inactive (inhibition of testosterone-enhanced prostate weight): inactive
